{"source": "paper PMC10006169", "about": "“A phase I trial of LXS196, a protein kinase C (PKC) inhibitor, for metastatic uveal melanoma” (British Journal of Cancer, 2023)", "experiment": "Plasma pharmacokinetics (LC-MS/MS)", "type": "in vivo, human", "details": "human, plasma, oral; for Tmax: read-out: Tmax, Median (Min, max)", "procedure": "In the dose escalation part of the study, PK samples were collected at various pre- and post-dose time points on C1D1, D2, D3, D15 and D16. Drug concentrations were assessed using a validated liquid chromatography-tandem mass spectrometry assay.", "note": "Where two headings read alike, the source gives them in different places."}
{"smiles": "CC1(N)CCN(c2cccnc2NC(=O)c2nc(-c3ncccc3C(F)(F)F)cnc2N)CC1", "note": "[LXS196]", "values": [{"measurement": "AUC(0-t)", "setting": "300 mg, C1D1, 300 mg BID, n=17, read-out: AUC0-t, Geo-mean", "result": 18700, "unit": "ng·h/mL"}, {"measurement": "AUC(0-t)", "setting": "300 mg, C1D1, 300 mg BID, n=17, read-out: AUC0-t, Mean (SD)", "result": 20500, "unit": "ng·h/mL"}, {"measurement": "AUC(0-t)", "setting": "300 mg, C1D1, 300 mg BID, n=17, read-out: AUC0-t, Median (Min, max)", "result": 17000, "unit": "ng·h/mL"}, {"measurement": "Cmax", "setting": "300 mg, C1D1, 300 mg BID, n=17, read-out: Cmax, Geo-mean", "result": 3850, "unit": "ng/mL"}, {"measurement": "Cmax", "setting": "300 mg, C1D1, 300 mg BID, n=17, read-out: Cmax, Mean (SD)", "result": 4100, "unit": "ng/mL"}, {"measurement": "Cmax", "setting": "300 mg, C1D1, 300 mg BID, n=17, read-out: Cmax, Median (Min, max)", "result": 4210, "unit": "ng/mL"}, {"measurement": "Tmax", "setting": "300 mg, C1D1, 300 mg BID, n=17", "result": 1, "unit": "h"}, {"measurement": "AUC(0-t)", "setting": "300 mg, C1D1, 300 mg QD, n=15, read-out: AUC0-t, Geo-mean", "result": 34000, "unit": "ng·h/mL"}, {"measurement": "AUC(0-t)", "setting": "300 mg, C1D1, 300 mg QD, n=15, read-out: AUC0-t, Mean (SD)", "result": 40200, "unit": "ng·h/mL"}, {"measurement": "AUC(0-t)", "setting": "300 mg, C1D1, 300 mg QD, n=15, read-out: AUC0-t, Median (Min, max)", "result": 34400, "unit": "ng·h/mL"}, {"measurement": "AUC(0-inf)", "setting": "300 mg, C1D1, 300 mg QD, n=15, read-out: AUCinf, Geo-mean", "result": 42100, "unit": "ng·h/mL"}, {"measurement": "AUC(0-inf)", "setting": "300 mg, C1D1, 300 mg QD, n=15, read-out: AUCinf, Mean (SD)", "result": 51300, "unit": "ng·h/mL"}, {"measurement": "AUC(0-inf)", "setting": "300 mg, C1D1, 300 mg QD, n=15, read-out: AUCinf, Median (Min, max)", "result": 43100, "unit": "ng·h/mL"}, {"measurement": "Cmax", "setting": "300 mg, C1D1, 300 mg QD, n=15, read-out: Cmax, Geo-mean", "result": 4940, "unit": "ng/mL"}, {"measurement": "Cmax", "setting": "300 mg, C1D1, 300 mg QD, n=15, read-out: Cmax, Mean (SD)", "result": 5580, "unit": "ng/mL"}, {"measurement": "Cmax", "setting": "300 mg, C1D1, 300 mg QD, n=15, read-out: Cmax, Median (Min, max)", "result": 5370, "unit": "ng/mL"}, {"measurement": "half-life", "setting": "300 mg, C1D1, 300 mg QD, n=15, read-out: T1/2, Geo-mean (converted)", "result": 10.7, "unit": "h"}, {"measurement": "half-life", "setting": "300 mg, C1D1, 300 mg QD, n=15, read-out: T1/2, Mean (SD) (converted)", "result": 10.8, "unit": "h"}, {"measurement": "half-life", "setting": "300 mg, C1D1, 300 mg QD, n=15, read-out: T1/2, Median (Min, max) (converted)", "result": 11.1, "unit": "h"}, {"measurement": "Tmax", "setting": "300 mg, C1D1, 300 mg QD, n=15", "result": 1, "unit": "h"}, {"measurement": "AUC(0-t)", "setting": "300 mg, C1D15, 300 mg BID, n=12, read-out: AUC0-t, Geo-mean", "result": 18300, "unit": "ng·h/mL"}, {"measurement": "AUC(0-t)", "setting": "300 mg, C1D15, 300 mg BID, n=12, read-out: AUC0-t, Mean (SD)", "result": 19100, "unit": "ng·h/mL"}, {"measurement": "AUC(0-t)", "setting": "300 mg, C1D15, 300 mg BID, n=12, read-out: AUC0-t, Median (Min, max)", "result": 17400, "unit": "ng·h/mL"}, {"measurement": "Cmax", "setting": "300 mg, C1D15, 300 mg BID, n=17, read-out: Cmax, Geo-mean", "result": 2800, "unit": "ng/mL"}, {"measurement": "Cmax", "setting": "300 mg, C1D15, 300 mg BID, n=17, read-out: Cmax, Mean (SD)", "result": 2860, "unit": "ng/mL"}, {"measurement": "Cmax", "setting": "300 mg, C1D15, 300 mg BID, n=17, read-out: Cmax, Median (Min, max)", "result": 2880, "unit": "ng/mL"}, {"measurement": "Tmax", "setting": "300 mg, C1D15, 300 mg BID, n=17", "result": 0.567, "unit": "h"}, {"measurement": "AUC(0-t)", "setting": "300 mg, C1D15, 300 mg QD, n=13, read-out: AUC0-t, Geo-mean", "result": 26500, "unit": "ng·h/mL"}, {"measurement": "AUC(0-t)", "setting": "300 mg, C1D15, 300 mg QD, n=13, read-out: AUC0-t, Mean (SD)", "result": 30500, "unit": "ng·h/mL"}, {"measurement": "AUC(0-t)", "setting": "300 mg, C1D15, 300 mg QD, n=13, read-out: AUC0-t, Median (Min, max)", "result": 27900, "unit": "ng·h/mL"}, {"measurement": "Cmax", "setting": "300 mg, C1D15, 300 mg QD, n=14, read-out: Cmax, Geo-mean", "result": 3500, "unit": "ng/mL"}, {"measurement": "Cmax", "setting": "300 mg, C1D15, 300 mg QD, n=14, read-out: Cmax, Mean (SD)", "result": 3860, "unit": "ng/mL"}, {"measurement": "Cmax", "setting": "300 mg, C1D15, 300 mg QD, n=14, read-out: Cmax, Median (Min, max)", "result": 3310, "unit": "ng/mL"}, {"measurement": "concentration at 15 day", "setting": "300 mg, C1D15, 300 mg QD, n=14, read-out: Cmin, Median (Min, max)", "result": 326, "unit": "ng/mL"}, {"measurement": "Tmax", "setting": "300 mg, C1D15, 300 mg QD, n=14", "result": 1, "unit": "h"}, {"measurement": "AUC(0-t)", "setting": "400 mg, C1D1, 400 mg BID, n=5, read-out: AUC0-t, Geo-mean", "result": 16800, "unit": "ng·h/mL"}, {"measurement": "AUC(0-t)", "setting": "400 mg, C1D1, 400 mg BID, n=5, read-out: AUC0-t, Mean (SD)", "result": 18100, "unit": "ng·h/mL"}, {"measurement": "AUC(0-t)", "setting": "400 mg, C1D1, 400 mg BID, n=5, read-out: AUC0-t, Median (Min, max)", "result": 18200, "unit": "ng·h/mL"}, {"measurement": "AUC(0-inf)", "setting": "400 mg, C1D1, 400 mg BID, n=5, read-out: AUCinf, Geo-mean", "result": 28400, "unit": "ng·h/mL"}, {"measurement": "AUC(0-inf)", "setting": "400 mg, C1D1, 400 mg BID, n=5, read-out: AUCinf, Mean (SD)", "result": 30400, "unit": "ng·h/mL"}, {"measurement": "AUC(0-inf)", "setting": "400 mg, C1D1, 400 mg BID, n=5, read-out: AUCinf, Median (Min, max)", "result": 31700, "unit": "ng·h/mL"}, {"measurement": "Cmax", "setting": "400 mg, C1D1, 400 mg BID, n=5, read-out: Cmax, Geo-mean", "result": 3730, "unit": "ng/mL"}, {"measurement": "Cmax", "setting": "400 mg, C1D1, 400 mg BID, n=5, read-out: Cmax, Mean (SD)", "result": 4350, "unit": "ng/mL"}, {"measurement": "Cmax", "setting": "400 mg, C1D1, 400 mg BID, n=5, read-out: Cmax, Median (Min, max)", "result": 3850, "unit": "ng/mL"}, {"measurement": "half-life", "setting": "400 mg, C1D1, 400 mg BID, n=5, read-out: T1/2, Geo-mean (converted)", "result": 13.5, "unit": "h"}, {"measurement": "half-life", "setting": "400 mg, C1D1, 400 mg BID, n=5, read-out: T1/2, Mean (SD) (converted)", "result": 13.8, "unit": "h"}, {"measurement": "half-life", "setting": "400 mg, C1D1, 400 mg BID, n=5, read-out: T1/2, Median (Min, max) (converted)", "result": 14.5, "unit": "h"}, {"measurement": "Tmax", "setting": "400 mg, C1D1, 400 mg BID, n=5", "result": 1.03, "unit": "h"}, {"measurement": "AUC(0-t)", "setting": "400 mg, C1D15, 400 mg BID, n=4, read-out: AUC0-t, Geo-mean", "result": 15700, "unit": "ng·h/mL"}, {"measurement": "AUC(0-t)", "setting": "400 mg, C1D15, 400 mg BID, n=4, read-out: AUC0-t, Mean (SD)", "result": 15900, "unit": "ng·h/mL"}, {"measurement": "AUC(0-t)", "setting": "400 mg, C1D15, 400 mg BID, n=4, read-out: AUC0-t, Median (Min, max)", "result": 16000, "unit": "ng·h/mL"}, {"measurement": "Cmax", "setting": "400 mg, C1D15, 400 mg BID, n=4, read-out: Cmax, Geo-mean", "result": 2070, "unit": "ng/mL"}, {"measurement": "Cmax", "setting": "400 mg, C1D15, 400 mg BID, n=4, read-out: Cmax, Mean (SD)", "result": 2100, "unit": "ng/mL"}, {"measurement": "Cmax", "setting": "400 mg, C1D15, 400 mg BID, n=4, read-out: Cmax, Median (Min, max)", "result": 2060, "unit": "ng/mL"}, {"measurement": "Tmax", "setting": "400 mg, C1D15, 400 mg BID, n=4", "result": 0.842, "unit": "h"}, {"measurement": "AUC(0-t)", "setting": "500 mg, C1D1, 500 mg QD, n=10, read-out: AUC0-t, Geo-mean", "result": 48000, "unit": "ng·h/mL"}, {"measurement": "AUC(0-t)", "setting": "500 mg, C1D1, 500 mg QD, n=10, read-out: AUC0-t, Mean (SD)", "result": 50700, "unit": "ng·h/mL"}]}
